How the values were obtained:
[1] = biological target: T1, Lactococcus lactis heme-responsive transcription factor HrtR, SEQ ID NO: 1 (in E. coli MG1655, HrtR+ChuA+PhrtAB-luxCDABE) (Lactococcus cremoris, UniProt A2RIY0); test: Hemin response of E. coli MG1655 with HrtR+ChuA+PhrtAB-luxCDABE (luminescence); format: cell-based
T1 sequence (A2RIY0 1-189): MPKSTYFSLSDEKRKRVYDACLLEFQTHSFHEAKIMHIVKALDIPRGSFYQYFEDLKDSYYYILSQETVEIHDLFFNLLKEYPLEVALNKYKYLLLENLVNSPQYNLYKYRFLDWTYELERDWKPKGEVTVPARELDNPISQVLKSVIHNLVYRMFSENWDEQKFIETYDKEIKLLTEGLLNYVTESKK

[2] = biological target: T2, Lactococcus lactis heme-responsive transcription factor HrtR, SEQ ID NO: 1 (in E. coli MG1655, no ChuA) (Lactococcus cremoris, UniProt A2RIY0); test: Hemin response of E. coli MG1655 with HrtR and PhrtAB- or PL(HrtO)-luxCDABE without ChuA (luminescence); format: cell-based
T2 construct: PhrtAB- or PL(HrtO)-luxCDABE reporter
T2 sequence (A2RIY0 1-189): T1 sequence (A2RIY0 1-189)

Structure (SMILES)	response concentration range ([1]; with ChuA)	time to detectable differences in luminescence ([1]; depending on the concentration of hemin used) [min]	response of gene circuit to extracellular hemin [2]
C=CC1=C(C)c2cc3[nH]c(cc4nc(cc5[nH]c(cc1n2)c(C)c5CCC(=O)O)C(CCC(=O)O)=C4C)c(C)c3C=C.[Fe+2] [heme]	sub-micromolar range		
C=CC1=C(C)c2cc3[nH]c(cc4nc(cc5[nH]c(cc1n2)c(C)c5CCC(=O)O)C(CCC(=O)O)=C4C)c(C)c3C=C.[Fe+3] [hemin]		30 to 60	insensitive
